Experimental data from patent US4873253A, “Phenylalanine derivative and proteinase inhibitor” (Okamoto; Shosuke, priority 1987, dated 1989).
Where a name gives a salt, the structure may show the parent alone. Read-outs that look alike come from different tables or passages of the source.

Tests used:
bovine trypsin = biological target: T1, bovine trypsin (Bos taurus, UniProt P00760); assay: Antitrypsin activity: inhibition of S-2238 decomposition; type: biochemical; conditions: Table 2; substrate S-2238, pH 8.1, 37° C.; read-out: Trypsin S-2238 I50
T1 sequence (P00760 24-246): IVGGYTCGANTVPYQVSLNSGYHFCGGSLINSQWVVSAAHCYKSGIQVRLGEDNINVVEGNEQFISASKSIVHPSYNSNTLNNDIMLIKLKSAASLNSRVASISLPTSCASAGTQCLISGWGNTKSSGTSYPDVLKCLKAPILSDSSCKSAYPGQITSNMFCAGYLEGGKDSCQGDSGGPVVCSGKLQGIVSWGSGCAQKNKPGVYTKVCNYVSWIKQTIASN
Protocol: Determination of inhibition activity against S-2238 decomposition
An inhibitor sample is dissolved in a 0.05 M Tris-imidazole buffer solution (pH=8.1) and 125 μl of a 1 mM S-2238 solution is added to make the total volume to 1.20 ml. The mixture is incubated at a temperature of 37° C. for 5 minutes in a constant temperature bath. To this mixture, 0.05 ml of bovine trypsin is added and the absorbance, at 405 nm, of the p-nitroaniline formed per minute is determined at a temperature of 37° C. by using the so-called initial velocity method. Thus, the concentration I50 (μmol) of a inhibitor sample, at which the absorbance is one half (i.e., 1/2) of that obtained in the absence of the inhibitor sample, is determined.

human plasma kallikrein = human plasma kallikrein (Homo sapiens, UniProt P03952); assay: Anti-plasma kallikrein activity: inhibition of S-2302 decomposition; type: biochemical; conditions: Table 2; substrate S-2302, pH 7.8, 37° C.; read-out: Plasma Kallikrein S-2302 I50
Protocol: Determination of inhibition activity for S-2302 decomposition
(§1) An inhibitor sample is dissolved in a 0.05 M Tris-hydrochloric acid buffer solution (pH=7.8) to make the total volume to 400 μl. To this solution, 50 μl of a 2 mM S-2302 solution is added and the mixture is incubated at a temperature of 37° C. for 5 minutes in a constant temperature bath. Then, 50 μl of a 0.12 unit/ml human plasma kallikrein is added and the mixture is incubated at a temperature of 37° C. for 5 minutes. Thereafter, 50 μl of 50% acetic acid is added to terminate the reaction. The absorbance of the p-nitroaniline formed in the reaction mixture is measured at 405 nm. Thus, the concentration I50 (μmol) of the inhibitor sample, at which the absorbance is one half (i.e., 1/2) of that obtained in the absence of the inhibitor sample, is determined.

human plasmin [1] = biological target: T2, human plasmin (Homo sapiens, UniProt P00747); assay: Antiplasmin activity: inhibition of S-2251 decomposition; type: biochemical; conditions: Table 2; substrate S-2251, pH 7.4, 37° C.
Protocol: An inhibitor sample is dissolved in a 0.05 M Tris-hydrochloric acid buffer solution (pH=7.4) to make the total volume to 400 μl. […] Then, 50 μl of a 0.2 casein unit/ml human plasmin is added and the mixture is incubated at a temperature of 37° C. for 4 minutes. Thereafter, the reaction is stopped by adding 50 μl of 50% acetic acid.
Thus, the concentration I50 (μmol) of the inhibitor sample, at which the absorbance is one half (i.e., 1/2) of that obtained in the absence of the inhibitor, is determined.

human plasmin [2] = biological target: T2, human plasmin; assay: Antiplasmin activity: inhibition of fibrin decomposition; type: biochemical; conditions: Table 2, pH 7.4, 37° C., read-out: Plasmin Fibrin I50 (concentration doubling fibrin dissolution time)
Protocol: (i) Determination of inhibition activity for fibrin decomposition
An inhibitor sample is dissolved in a 0.18 M borate-physiological salt buffer solution (pH=7.4) to make the total volume to 600 μl. To this buffer solution, 200 μl of a 0.2% bovine fibrinogen, 100 μl of a 0.3 casein unit/ml human plasmin solution, and 100 μl of a 50 unit/ml bovine thrombin solution, all dissolved in the above-mentioned buffer, are added at a temperature of 37° C. in a constant temperature bath. Then, the dissolution time of the fibrin mass formed above is determined.

human urokinase = human urokinase (Homo sapiens, UniProt P00749); assay: biochemical; conditions: Table 2; substrate S-2444, pH 8.8, 37° C.; read-out: Urokinase S-2444 I50
Protocol: Determination of inhibition activity for S-2444 decomposition
as §1, with “solution (pH=8.8)” for “solution (pH=7.8)”, “a 1” for “a 2”, “mM S-2444” for “mM S-2302”, “a 500” for “a 0.12”, “human urokinase” for “human plasma kallikrein”

bovine thrombin = biological target: T3, bovine thrombin (Bos taurus, UniProt P00735); assay: Antithrombin activity: inhibition of fibrin formation (fibrinogen); type: biochemical
T3 construct: a 0.2 unit/ml bovine thrombin solution
Protocol: (i) Determination of inhibition activity against fibrin formation
An inhibitor sample is dissolved in a 0.18 M borate-physiological salt buffer solution (pH= 7.4) to make the total volume to 500 μl. […] Thus, a coagulation time is determined. The inhibitor concentration I50 (μmol), at which the coagulation time obtained in the absence of the inhibitor is extended twice, is determined.

[3] = Table 2, bovine fibrinogen, pH 7.4, 37° C., read-out: Thrombin Fibrinogen I50 (concentration doubling coagulation time)

Sequence of human plasma kallikrein (P03952 391-638 limits assumed): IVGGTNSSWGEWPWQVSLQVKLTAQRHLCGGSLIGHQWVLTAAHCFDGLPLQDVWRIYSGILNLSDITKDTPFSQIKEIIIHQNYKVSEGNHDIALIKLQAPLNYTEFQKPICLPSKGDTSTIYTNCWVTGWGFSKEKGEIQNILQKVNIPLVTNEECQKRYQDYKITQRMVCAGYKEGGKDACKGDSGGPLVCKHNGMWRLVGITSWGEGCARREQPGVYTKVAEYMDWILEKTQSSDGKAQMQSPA
Sequence of human plasma kallikrein (P03952 20-390 limits assumed): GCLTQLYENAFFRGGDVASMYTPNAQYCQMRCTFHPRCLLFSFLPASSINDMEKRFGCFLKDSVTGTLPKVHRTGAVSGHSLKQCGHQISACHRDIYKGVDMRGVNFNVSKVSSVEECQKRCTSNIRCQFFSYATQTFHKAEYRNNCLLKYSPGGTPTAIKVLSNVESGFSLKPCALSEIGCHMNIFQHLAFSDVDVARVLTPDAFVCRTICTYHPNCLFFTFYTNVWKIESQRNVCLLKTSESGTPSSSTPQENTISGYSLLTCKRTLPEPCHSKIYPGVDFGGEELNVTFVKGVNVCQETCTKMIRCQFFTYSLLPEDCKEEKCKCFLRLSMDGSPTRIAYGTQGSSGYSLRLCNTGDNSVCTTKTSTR
T2 sequence (P00747 581-810 limits assumed): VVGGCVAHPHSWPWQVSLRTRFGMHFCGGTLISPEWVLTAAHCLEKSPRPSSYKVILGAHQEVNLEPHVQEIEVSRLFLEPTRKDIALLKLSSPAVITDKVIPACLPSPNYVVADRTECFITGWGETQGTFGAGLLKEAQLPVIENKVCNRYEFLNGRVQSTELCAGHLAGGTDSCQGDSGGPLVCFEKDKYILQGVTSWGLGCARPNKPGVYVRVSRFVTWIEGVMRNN
T2 sequence (P00747 97-580 limits assumed): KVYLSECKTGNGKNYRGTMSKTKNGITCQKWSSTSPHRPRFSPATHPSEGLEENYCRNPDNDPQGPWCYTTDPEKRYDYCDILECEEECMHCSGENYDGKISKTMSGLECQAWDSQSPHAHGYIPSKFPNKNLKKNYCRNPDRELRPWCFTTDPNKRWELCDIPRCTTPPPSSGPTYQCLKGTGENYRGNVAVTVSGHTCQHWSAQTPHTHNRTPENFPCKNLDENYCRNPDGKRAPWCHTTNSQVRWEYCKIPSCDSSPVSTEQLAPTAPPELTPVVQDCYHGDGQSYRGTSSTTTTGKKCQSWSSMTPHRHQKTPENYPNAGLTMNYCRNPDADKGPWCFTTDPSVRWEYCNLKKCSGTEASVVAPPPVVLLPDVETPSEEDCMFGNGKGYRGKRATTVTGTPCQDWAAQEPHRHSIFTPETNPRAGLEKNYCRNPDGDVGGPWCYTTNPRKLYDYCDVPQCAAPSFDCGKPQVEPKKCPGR

Row | IC50 (bovine trypsin) | IC50 (human plasma kallikrein) | IC50 (human plasmin [1]) | IC50 (human plasmin [2]) | IC50 (human urokinase) | IC50 (bovine thrombin) | IC50 (bovine thrombin; [3]) | Compound
1 | > 150 µM | > 10 µM | > 20 µM | > 50 µM | – | – | – | CC(=O)c1ccc(NC(=O)C(Cc2cccc(Oc3ccccc3)c2)NC(=O)[C@H]2CC[C@H](CNC(=N)N)CC2)cc1 (mixture of isomers) [Compound 30, N-(trans-4-guanidinomethylcyclohexylcarbonyl)-3-phenoxy-DL-phenylalanine 4-acetylanilide methane sulfonate]
2 | 42 µM | 4.5 µM | > 100 µM | > 25 µM | > 200 µM | > 25 µM | – | CCOC(=O)c1cccc(NC(=O)C(Cc2cccc(Oc3ccccc3)c2)NC(=O)c2ccc(NC(=N)N)cc2)c1 (stereo not drawn) [Compound 33]
3 | > 150 µM | > 1000 µM | 280 µM | 440 µM | > 1000 µM | – | > 1000 µM | NC[C@H]1CC[C@H](C(=O)NC(Cc2cccc(Oc3ccc(Br)cn3)c2)C(=O)N2CCOCC2)CC1 (stereo partly drawn) [Compound 27]
4 | > 150 µM | 500 µM | 490 µM | 450 µM | > 1000 µM | – | > 1000 µM | COCCCNC(=O)C(Cc1cccc(Oc2ccc(Br)cn2)c1)NC(=O)[C@H]1CC[C@H](CN)CC1 (mixture of isomers) [Compound 25, N-(trans-4-aminomethylcyclohexylcarbonyl)-3-(5-bromo-2-pyridyloxy)-DL-phenylalanine 3-methoxypropylamide hydrochloride]
5 | 87 µM | > 1000 µM | > 1000 µM | 260 µM | > 1000 µM | – | > 1000 µM | COCCCNC(=O)C(Cc1cccc(C(F)(F)F)c1)NC(=O)[C@H]1CC[C@H](CN)CC1 (stereo partly drawn) [Compound 28]
6 | 2.5 µM | 8.7 µM | 22 µM | 12 µM | 38 µM | – | > 100 µM | N=C(N)c1ccc(NC(=O)C(Cc2cccc(Oc3ccccc3)c2)NC(=O)[C@H]2CC[C@H](CN)CC2)cc1 (mixture of isomers) [Compound 5, N-(trans-4-aminomethylcyclohexylcarbonyl)-3-phenoxy-DL-phenylalanine-4-amidinoanilide dihydrochloride]
7 | > 150 µM | > 1000 µM | 1000 µM | 570 µM | > 500 µM | – | > 1000 µM | NC[C@H]1CC[C@H](C(=O)NC(Cc2cccc(Oc3ccccc3)c2)C(=O)N2CCC(C(=O)O)CC2)CC1 (stereo partly drawn) [Compound 17]
8 | > 150 µM | > 1000 µM | > 1000 µM | > 1000 µM | > 1000 µM | > 1000 µM | – | NC[C@H]1CC[C@H](C(=O)NC(Cc2cccc(C(F)(F)F)c2)C(=O)N2CCOCC2)CC1 (mixture of isomers) [Compound 29, N-(trans-4-aminomethylcyclohexylcarbonyl)-3-trifluoromethyl-DL-phenylalanine morpholinoamide hydrochloride]
9 | 68 µM | 190 µM | 610 µM | 220 µM | > 400 µM | – | – | NC[C@H]1CC[C@H](C(=O)NC(Cc2cccc(Oc3ccccc3)c2)C(=O)Nc2ncc[nH]2)CC1 (stereo partly drawn) [Compound 11]
10 | > 150 µM | > 1000 µM | > 100 µM | > 60 µM | > 1000 µM | – | > 1000 µM | COC(=O)[C@H]1CCCN1C(=O)C(Cc1cccc(Oc2ccccc2)c1)NC(=O)[C@H]1CC[C@H](CN)CC1 (stereo partly drawn) [Compound 20]
11 | > 150 µM | > 100 µM | > 100 µM | – | > 200 µM | > 50 µM | – | CCOC(=O)c1ccccc1NC(=O)C(Cc1cccc(Oc2ccccc2)c1)NC(=O)[C@H]1CC[C@H](CN)CC1 (mixture of isomers) [Compound 4, N-(trans-4-aminomethylcyclohexylcarbonyl)-3-phenoxy-DL-phenylalanine 2-ethoxycarbonylanilide hydrochloride]
12 | 240 µM | > 500 µM | > 500 µM | > 200 µM | – | – | – | N=C(N)Nc1ccc(C(=O)NC(Cc2cccc(Oc3ccccc3)c2)C(=O)N2CCC(C(=O)O)CC2)cc1 (racemic) [Compound 35, N-(4-guanidinobenzoyl)-3-phenoxy-DL-phenylalanine 4-hydroxycarbonyl piperidinoamide methane sulfonate]
13 | > 150 µM | 270 µM | – | – | > 200 µM | – | > 50 µM | CCOC(=O)C1CCN(C(=O)C(Cc2cccc(Oc3ccccc3)c2)NC(=O)c2ccc(NC(=N)N)cc2)CC1 (racemic) [Compound 34, N-(4-guanidinobenzoyl)-3-phenoxy-DL-phenylalanine 4-ethoxycarbonyl piperidinoamide methane sulfonate]
14 | > 150 µM | > 250 µM | – | – | > 250 µM | – | > 125 µM | NC[C@H]1CC[C@H](C(=O)NC(Cc2cccc(Oc3ccccc3)c2)C(=O)Nc2ncccc2C(=O)O)CC1 (mixture of isomers) [Compound 10, N-(trans-4-aminomethylcyclohexylcarbonyl)-3-phenoxy-DL-phenylalanine 2-nicotinylamide dihydrobromide]
15 | > 150 µM | > 200 µM | – | – | > 200 µM | – | > 100 µM | NC[C@H]1CC[C@H](C(=O)NC(Cc2cccc(Oc3ccccc3)c2)C(=O)Nc2nnn[nH]2)CC1 (stereo partly drawn) [Compound 13]
16 | 15 µM | 2 µM | – | – | – | – | > 1000 µM | NC[C@H]1CC[C@H](C(=O)NC(Cc2cccc(Oc3ccccc3)c2)C(=O)Nc2cccnc2)CC1 (stereo partly drawn) [Compound 7]
17 | 17 µM | 1.9 µM | 25 µM | > 25 µM | – | – | – | N=C(N)Nc1ccc(C(=O)NC(Cc2cccc(Oc3ccccc3)c2)C(=O)Nc2ccc(CC(=O)O)cc2)cc1 (racemic) [Compound 36, N-(4-guanidinobenzoyl)-3-phenoxy-DL-phenylalanine 4-hydroxycarbonylmethylanilide hydrochloride]
18 | > 150 µM | > 500 µM | > 1000 µM | > 500 µM | – | – | > 500 µM | NC[C@H]1CC[C@H](C(=O)NC(Cc2cccc(OCc3ccccc3)c2)C(=O)Nc2cccnc2)CC1 (mixture of isomers) [Compound 22, N-(trans-4-aminomethylcyclohexylcarbonyl)-3-benzyloxy-DL-phenylalanine 3-pyridylamide dihydrochloride]
